Measured values published in ChEMBL document CHEMBL5257062, “Synthesis, in vitro cytotoxicity evaluation and mechanism of 5' monosubstituted chalcone derivatives as antitumor agents” (Bioorg Med Chem Lett, 2023).
Activity calls are given as the source filed them. The rule behind the calls is not given here.

How the values were obtained:
K562 [1] = experiment: Cytotoxicity against human K562 cells by MTT assay; type: functional, cell-based
HT-29 = experiment: Cytotoxicity against human HT-29 cells by MTT assay; type: functional, cell-based
HepG2 [2] = experiment: Cytotoxicity against human HepG2 cells by MTT assay; type: functional, cell-based
[3] = Cytotoxicity against HEK293T cells; type: toxicity, cell-based, HEK-293T; settings: human
MDA-MB-231 = experiment: Cytotoxicity against human MDA-MB-231 cells; type: functional, cell-based
[4] = Cytotoxicity against HUVEC cells; type: toxicity, cell-based; settings: human
K562 [5] = experiment: Induction of apoptosis in human K562 cells assessed as inhibition of cell growth after 12 to 72 hrs; type: functional, cell-based; settings: dose 0.2-20 µM, time 12-72 hrs
K562 [6] = experiment: Induction of apoptosis in human K562 cells assessed as inhibition of cell growth at 2 to 20 uM; type: functional, cell-based; settings: dose 2-20 µM, time 12-72 hrs, TDE = time-dependent effect
K562 [7] = experiment: Induction of cell cycle arrest in human K562 cells assessed as accumulation of cells at G2 phase at 20 uM incubated for 6 hrs by flow cytometry (reference value: 13.40%); type: functional
K562 [8] = experiment: Induction of cell cycle arrest in human K562 cells assessed as accumulation of cells at G2 phase at 2 uM incubated for 6 hrs by flow cytometry (reference value: 13.40%); type: functional
HepG2 [9] = experiment: Inhibition of cell migration human HepG2 cells assessed as migration distance at 0.3 uM incubated for 36 hrs by wound healing assay (reference value: 243.56 micrometer); type: functional
K562 [10] = experiment: Induction of cell cycle arrest in human K562 cells assessed as accumulation of cells at G2 phase at 20 uM incubated for 12 hrs by flow cytometry (reference value: 11.93%); type: functional
K562 [11] = experiment: Induction of apoptosis in human K562 cells at 2 uM after 48 hrs by annexin V-FITC and PI staining based method (reference value: 9.8%); type: functional
K562 [12] = experiment: Induction of cell cycle arrest in human K562 cells assessed as accumulation of cells at S phase at 2 uM incubated for 12 hrs by flow cytometry (reference value: 16.9%); type: functional
K562 [13] = experiment: Induction of cell cycle arrest in human K562 cells assessed as accumulation of cells at G1 phase at 20 uM incubated for 12 hrs by flow cytometry (reference value: 71.17%); type: functional
HepG2 [14] = experiment: Inhibition of cell migration human HepG2 cells at 0.3 to 3 uM incubated for 48 hrs by Transwell assay; type: functional, cell-based; settings: dose 0.3-3 µM
K562 [15] = experiment: Induction of cell cycle arrest in human K562 cells assessed as accumulation of cells at G2 phase at 20 uM incubated for 24 hrs by flow cytometry (reference value: 0.27%); type: functional
HepG2 [16] = experiment: Inhibition of cell migration human HepG2 cells assessed as migration distance at 3 uM incubated for 48 hrs by wound healing assay (reference value: 0 micrometer); type: functional
HepG2 [17] = experiment: Inhibition of cell migration human HepG2 cells assessed as migration distance at 1 uM incubated for 24 hrs by wound healing assay (reference value: 424.41 micrometer); type: functional
HepG2 [18] = experiment: Inhibition of cell migration human HepG2 cells assessed as migration distance at 1 uM incubated for 36 hrs by wound healing assay (reference value: 243.56 micrometer); type: functional
HepG2 [19] = experiment: Inhibition of cell migration human HepG2 cells assessed as migration distance at 0.3 uM incubated for 48 hrs by wound healing assay (reference value: 0 micrometer); type: functional
HepG2 [20] = experiment: Inhibition of cell migration human HepG2 cells assessed as migration distance at 0.3 uM incubated for 24 hrs by wound healing assay (reference value: 424.41 micrometer); type: functional
HepG2 [21] = experiment: Inhibition of cell migration human HepG2 cells assessed as migration distance at 1 uM incubated for 12 hrs by wound healing assay (reference value: 566.76 micrometer); type: functional
K562 [22] = experiment: Induction of cell cycle arrest in human K562 cells assessed as accumulation of cells at S phase at 2 uM incubated for 24 hrs by flow cytometry (reference value: 17.51%); type: functional
K562 [23] = experiment: Induction of cell cycle arrest in human K562 cells assessed as accumulation of cells at S phase at 2 uM incubated for 6 hrs by flow cytometry (reference value: 28.87%); type: functional
K562 [24] = experiment: Induction of apoptosis in human K562 cells at 20 uM after 24 hrs by annexin V-FITC and PI staining based method (reference value: 9%); type: functional
K562 [25] = experiment: Induction of apoptosis in human K562 cells assessed as appearance of apoptotic bodies at 2 to 20 uM by light microscopic analysis; type: functional, cell-based; settings: dose 2-20 µM, TDE = time-dependent effect
HepG2 [26] = experiment: Inhibition of cell migration human HepG2 cells assessed as migration distance at 3 uM incubated for 12 hrs by wound healing assay (reference value: 566.76 micrometer); type: functional
K562 [27] = experiment: Induction of cell cycle arrest in human K562 cells assessed as accumulation of cells at G1 phase at 20 uM incubated for 6 hrs by flow cytometry (reference value: 57.73%); type: functional
K562 [28] = experiment: Induction of cell cycle arrest in human K562 cells assessed as accumulation of cells at S phase at 20 uM incubated for 12 hrs by flow cytometry (reference value: 16.9%); type: functional
K562 [29] = experiment: Induction of cell cycle arrest in human K562 cells assessed as accumulation of cells at G1 phase at 20 uM incubated for 24 hrs by flow cytometry (reference value: 82.22%); type: functional
K562 [30] = experiment: Induction of cell cycle arrest in human K562 cells assessed as accumulation of cells at G1 phase at 2 uM incubated for 12 hrs by flow cytometry (reference value: 71.17%); type: functional
K562 [31] = experiment: Induction of cell cycle arrest in human K562 cells assessed as accumulation of cells at S phase at 20 uM incubated for 24 hrs by flow cytometry (reference value: 17.51%); type: functional
HepG2 [32] = experiment: Inhibition of cell migration human HepG2 cells assessed as migration distance at 3 uM incubated for 36 hrs by wound healing assay (reference value: 243.56 micrometer); type: functional
K562 [33] = experiment: Induction of apoptosis in human K562 cells at 2 uM after 24 hrs by annexin V-FITC and PI staining based method (reference value: 9%); type: functional
K562 [34] = experiment: Induction of cell cycle arrest in human K562 cells assessed as accumulation of cells at G2 phase at 2 uM incubated for 12 hrs by flow cytometry (reference value: 11.93%); type: functional
HCT-116 = experiment: Cytotoxicity against human HCT-116 cells; type: functional, cell-based
HepG2 [35] = experiment: Inhibition of cell migration human HepG2 cells assessed as migration distance at 3 uM incubated for 24 hrs by wound healing assay (reference value: 424.41 micrometer); type: functional
K562 [36] = experiment: Induction of cell cycle arrest in human K562 cells assessed as accumulation of cells at G1 phase at 2 uM incubated for 24 hrs by flow cytometry (reference value: 82.22%); type: functional
K562 [37] = experiment: Induction of apoptosis in human K562 cells at 20 uM after 48 hrs by annexin V-FITC and PI staining based method (reference value: 9.8%); type: functional
K562 [38] = experiment: Induction of cell cycle arrest in human K562 cells assessed as accumulation of cells at S phase at 20 uM incubated for 6 hrs by flow cytometry (reference value: 28.87%); type: functional
HepG2 [39] = experiment: Inhibition of cell migration human HepG2 cells assessed as migration distance at 1 uM incubated for 48 hrs by wound healing assay (reference value: 0 micrometer); type: functional
HepG2 [40] = experiment: Inhibition of cell migration human HepG2 cells assessed as migration distance at 0.3 uM incubated for 12 hrs by wound healing assay (reference value: 566.76 micrometer); type: functional
K562 [41] = experiment: Induction of apoptosis in human K562 cells at 2 uM after 12 hrs by annexin V-FITC and PI staining based method (reference value: 8.4%); type: functional
K562 [42] = experiment: Induction of cell cycle arrest in human K562 cells assessed as accumulation of cells at G1 phase at 2 uM incubated for 6 hrs by flow cytometry (reference value: 57.73%); type: functional
K562 [43] = experiment: Induction of apoptosis in human K562 cells at 20 uM after 12 hrs by annexin V-FITC and PI staining based method (reference value: 8.4%); type: functional
K562 [44] = experiment: Induction of cell cycle arrest in human K562 cells assessed as accumulation of cells at G2 phase at 2 uM incubated for 24 hrs by flow cytometry (reference value: 0.27%); type: functional

COc1ccc(-c2cc(C(=O)/C=C/c3ccccc3)c(OC)cc2OC)cc1
IC50 (K562 [1]): 7.26 µM | IC50 (HT-29): > 10 µM | IC50 (HepG2 [2]): > 10 µM

CC[C@@]1(O)C(=O)OCc2c1cc1n(c2=O)Cc2cc3ccccc3nc2-1 [CAMPTOTHECIN]
IC50 (K562 [1]): 0.04 µM | IC50 [3]: 0.03 µM | IC50 (HT-29): 0.07 µM | IC50 (MDA-MB-231): > 100 µM | IC50 (HepG2 [2]): 0.02 µM | IC50 [4]: 0.06 µM

COc1cc(OC)c(-c2ccc(-c3ccco3)cc2)cc1C(=O)/C=C/c1ccccc1
IC50 (K562 [1]): 4.69 µM | IC50 (HT-29): 6.17 µM | IC50 (HepG2 [2]): 5.91 µM

COc1cc(OC)c(-c2ccc(F)cc2)cc1C(=O)/C=C/c1ccccc1
Activity (K562 [5]): Dose-Dependent Effect | Activity (K562 [6]): Tde | Activity (K562 [7]): 9.25% | IC50 (K562 [1]): 1.97 µM | Activity (K562 [8]): 11.61% | Activity (HepG2 [9]): 294.54 um | Activity (K562 [10]): 10.88% | Activity (K562 [11]): 32% | Activity (K562 [12]): 29.39% | IC50 [3]: 5.19 µM | Activity (K562 [13]): 52.57% | IC50 (HT-29): 7.69 µM | inhibition (HepG2 [14]): Active | Activity (K562 [15]): 1.33% | Activity (HepG2 [16]): 337.11 um | Activity (HepG2 [17]): 486.95 um | Activity (HepG2 [18]): 401.52 um | Activity (HepG2 [19]): 245.7 um | Activity (HepG2 [20]): 438 um | Activity (HepG2 [21]): 551.11 um | Activity (K562 [22]): 37.74% | IC50 (MDA-MB-231): 10.7 µM | Activity (K562 [23]): 29.62% | IC50 (HepG2 [2]): 2.23 µM | Activity (K562 [24]): 19.8% | Activity (K562 [25]): Tde | Activity (HepG2 [26]): 534.71 um | Activity (K562 [27]): 60.44% | Activity (K562 [28]): 36.55% | Activity (K562 [29]): 54.29% | Activity (K562 [30]): 58.31% | Activity (K562 [31]): 44.38% | Activity (HepG2 [32]): 423.28 um | Activity (K562 [33]): 12% | Activity (K562 [34]): 12.29% | IC50 (HCT-116): 5.17 µM | IC50 [4]: 19.7 µM | Activity (HepG2 [35]): 488.94 um | Activity (K562 [36]): 54.29% | Activity (K562 [37]): 62.6% | Activity (K562 [38]): 30.33% | Activity (HepG2 [39]): 301.44 um | Activity (HepG2 [40]): 532.4 um | Activity (K562 [41]): 8.1% | Activity (K562 [42]): 58.77% | Activity (K562 [43]): 11.9% | Activity (K562 [44]): 7.97%

COc1cc(OC)c(-c2ccc(OC(C)=O)cc2)cc1C(=O)/C=C/c1ccccc1
IC50 (K562 [1]): > 10 µM | IC50 (HT-29): > 10 µM | IC50 (HepG2 [2]): > 10 µM

COc1cc(OC)c(-c2ccc(C(F)(F)F)cc2)cc1C(=O)/C=C/c1ccccc1
IC50 (K562 [1]): 8.7 µM | IC50 (HT-29): > 10 µM | IC50 (HepG2 [2]): > 10 µM

COc1cc(OC)c(-c2ccccc2)cc1C(=O)/C=C/c1ccccc1
IC50 (K562 [1]): 3.83 µM | IC50 (HT-29): 9.17 µM | IC50 (HepG2 [2]): > 10 µM

COc1cc(OC)c(-c2ccc(C#N)cc2)cc1C(=O)/C=C/c1ccccc1
IC50 (K562 [1]): > 10 µM | IC50 (HT-29): > 10 µM | IC50 (HepG2 [2]): > 10 µM

COc1cc(OC)c(-c2ccc(C)cc2)cc1C(=O)/C=C/c1ccccc1
IC50 (K562 [1]): 2.59 µM | IC50 (HT-29): 9.29 µM | IC50 (HepG2 [2]): > 10 µM
